# Data from patent publication US20230172935A1, “METHODS OF MONITORING KRAS MUTATIONS” (Cardiff Oncology, Inc., priority 2020, published 2023).
# What was measured:
# [1] = system: HCT-116 KRAS mutant xenograft; assay: HCT-116 KRAS-mutant CRC xenograft model; format: in vivo
# Description: FIG. 6A and FIG. 6B are graphs showing anti-tumor activity of onvansertib in combination with irinotecan and 5-FU in the HCT-116 KRAS-mutant CRC xenograft model.
# (§1) Onvansertib, an oral and highly-selective PLK1 inhibitor, is a promising therapeutic option for KRAS-mutated CRC. PLK1, a key regulator of mitosis, is overexpressed in CRC and associated with poor clinical parameters.
# PLK1 = PLK1 (Homo sapiens, UniProt P53350); details: including other PLK members; cited from earlier work
# Chain of PLK1 (P53350 whole entry): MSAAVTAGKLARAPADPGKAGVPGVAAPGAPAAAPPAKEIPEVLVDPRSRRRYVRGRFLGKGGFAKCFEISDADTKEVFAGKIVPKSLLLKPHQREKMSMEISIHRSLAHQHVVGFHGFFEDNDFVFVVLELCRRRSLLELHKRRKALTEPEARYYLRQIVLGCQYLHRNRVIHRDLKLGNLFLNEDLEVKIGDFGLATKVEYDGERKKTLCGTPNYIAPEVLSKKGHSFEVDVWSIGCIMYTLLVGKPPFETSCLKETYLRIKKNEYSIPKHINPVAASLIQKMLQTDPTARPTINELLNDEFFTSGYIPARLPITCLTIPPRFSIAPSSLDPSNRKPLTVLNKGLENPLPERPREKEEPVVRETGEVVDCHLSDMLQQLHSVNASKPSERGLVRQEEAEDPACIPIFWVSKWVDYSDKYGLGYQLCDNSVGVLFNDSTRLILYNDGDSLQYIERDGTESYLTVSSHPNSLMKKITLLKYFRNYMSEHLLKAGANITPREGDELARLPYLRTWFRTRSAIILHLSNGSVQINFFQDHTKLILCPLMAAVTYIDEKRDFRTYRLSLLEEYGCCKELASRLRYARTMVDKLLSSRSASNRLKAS
# [2] = system: advanced/metastatic solid tumors; details: evaluable patients; cited from earlier work
# [3] = system: HT29 human colon adenocarcinoma xenografts; details: in combination with irinotecan; cited from earlier work
# [4] = cited from earlier work
# cancer cell lines = details: cited from earlier work
# [5] = cited from earlier work; remark: listed apart in the source
# [6] = system: mutant KRAS in cell free DNA in plasma; assay: Phase 1b/2 mCRC study, plasma KRAS mutant by ddPCR; format: in vivo, human; details: with FOLFIRI and bevacizumab
# Protocol: Participants must have histologically confirmed metastatic and unresectable disease, and previously failed treatment or be intolerant to fluoropyrimidine and oxaliplatin with or without bevacizumab.
# KRAS in cell free DNA in plasma from patients was periodically quantified using droplet digital PCR (BioRad), where percentage of KRAS that is mutant KRAS was determined. The lower limit of sensitivity of this assay was 0.001% mutant KRAS.
# KRAS MAF was measured by digital droplet PCR (ddPCR) at baseline (Cycle 1 Day 1, pre-dose) and on-treatment (Day 1 of Cycles 2 to 9). […] Clinical responses were observed across different KRAS variants, including the 3 most common in CRC. […] In addition, patients with PR and SD tended to have lower on-treatment KRAS MAF than patients with early PD.
# [7] = system: cell lines, both from solid as well as hematologic tumors; details: large number of cell lines; cited from earlier work
# xenograft tumor = details: well tolerated doses, oral administration; cited from earlier work
# DLD-1 cells = assay: Cell viability (CellTiterGlo) in KRAS mutant and WT isogenic CRC cells; format: cell-based; details: 72h treatment
# Description: FIG. 5 is a graph showing cell viability in onvansertib-treated KRAS mutant and WT isogenic CRC cells.
# as §1
# [8] = system: disseminated model of AML; details: in combination with cytarabine; cited from earlier work
smiles,measurement,setting,value
"CN1CCN(c2ccc(OC(F)(F)F)c(Nc3ncc4c(n3)-c3c(c(C(N)=O)nn3CCO)CC4)c2)CC1 [onvansertib, 1-(2-hydroxyethyl)-8-{[5-(4-methylpiperazin-1-yl)-2-(trifluoromethoxy)phenyl]amino}-4,5-dihydro-1H-pyrazolo[4,3-h] quinazoline-3-carboxamide]",combination effect,[1]; in combination with irinotecan and 5-FU,synergy
same,anti-tumor activity,[1]; single agent,potent anti-tumor activity
same,specificity for PLK1 among a panel of 296 kinases,PLK1,high specificity
same,patients with stable disease,[2],5 of 16
same,tumor regression compared to each agent alone,[3],enhanced tumor regression
same,half-life,[4]; in vivo,about 24 hours
same,oral bioavailability,[4]; rodent and nonrodent species,good oral bioavailability
same,effect on cell cycle,cancer cell lines,mitotic cell-cycle arrest followed by apoptosis
same,primary dose-limiting toxicities,[5]; in vivo,neutropenia and thrombocytopenia
same,recovery of hematologic toxicities,[5]; reversible,≤ 3 weeks
same,recommended phase 2 dose,[5]; single agent,24 mg/m^2
same,patients with KRAS undetectable within the 1st cycle,"[6]; 12 mg/m^2, 4 patients detectable at baseline",4 patients
same,patients with KRAS undetectable within the 1st cycle,"[6]; 15 mg/m^2, 2 patients detectable at baseline",1 patients
same,change of KRAS mutant variants within the first cycle,"[6]; five variants in 6 patients, 12 and 15 mg/m^2",decreased
same,potency in proliferation assays,[7],low nanomolar activity
same,xenograft tumor growth,xenograft tumor,inhibits xenograft tumor growth
same,"mitotic arrest and cell death, mutant KRAS vs wild-type cells",DLD-1 cells,more profound mitotic arrest and cell death in mutant KRAS cells
same,survival of animals,[8],prolonged survival
